From patent US20250115640A1, “NEUROPROTECTIVE POLYPEPTIDE COMPOUND AND APPLICATION THEREOF” (Innerse (Zhuhai) Pharmaceutical Co., Ltd., priority 2021, published 2025)
Several values for one entry are separate records, joined by “and”; a condition that tells them apart may be missing. Identical values can stand only once. Entries after “also recorded” stand apart in the source; their conditions may differ. Square brackets hold non-standard residues; d marks the D form. Ends that are not written are not given here. Peptide text beside a SMILES is read from it. βAla = NCCC(=O)O

Tests used:
[1] = Body weight of MCAO model animals (Example 6); format: in vivo, Sprague-Dawley (SD) rats; details: individual animal
Protocol: • Animals measured: all the surviving experimental animals planned to be measured; • Measurement time: the body weight was measured at least twice during the adaptation period, once 24 hours before surgery for grouping, and once 24 hours after surgery.
Cerebral ischemia-reperfusion is an acute injury model, wherein the weight of experimental animals will drop dramatically after MCAO modeling. Thus, the weight of experimental animals is one of the most basic sensitive parameters to comprehensively reflect the health status of animals. In this experiment, the body weight of all the animals was monitored on the day before the surgery and on the first day after the surgery, and the changes of animal's body weight were observed and recorded.

[2] = General status observation and autopsy findings of MCAO model animals (Example 6); format: in vivo, Sprague-Dawley (SD) rats; details: 24 hours after administration; single animals
Protocol: After the adaptation period, animals weighing 240-290 g were selected for dividing into groups for modeling. 24 hours after administration, the animal numbered 2M006 in the S3 group was found dead. […] The data of the above animals was not included in the final statistical analysis. The data of the remaining animals in each group was included in the final statistical analysis. The number of animals included in the final statistical analysis was 8 animals for the model control group, 7 animals for S3 group, 9 animals for the t-PA group and 7 animals for S3+t-PA group.
• Animals observed: all the surviving animals planned to be observed; • Observation time: once a day, and the frequency can be increased if the animal starts to behave abnormal; • What were observed: including but not limited to general manifestations, behavioral status, eye, mouth, nose and mouth area, ear, hair and skin, feces, urine, genital organ and other toxic symptoms. A detailed description was required if there was any abnormality.

[3] = system: rat model of cerebral ischemia via middle cerebral artery occlusion (MCAO); assay: Rat MCAO cerebral ischemia model, TTC staining, cerebral infarct volume (Example 5); format: in vivo, SD rats; details: 3 mg/kg tail vein 1-2 h after ligation, TTC after 22-24 h
Protocol: In order to determine use of the synthetic peptides provided herein in a neurological disease, SD rats were used to prepare a rat model of cerebral ischemia via middle cerebral artery occlusion (MCAO). These rats were injected intravenously 1-2 hours after ischemia, and subjected for a behavioral observation and scoring after 22-24 hours. After the behavioral observation, the rats were euthanized and their brains were removed, cut to sections and stained with TTC for quantitative analysis, and the cerebral infarct volume % was calculated. The experimental SD rats were weighed and anesthetized with chloral hydrate. After anesthesia, the limbs of the rats were fixed, and the rats were placed in a supine position, connected to the small-animal monitor, and monitored for important physiological parameters such as body temperature, blood pressure and heart rate, etc. The rats were shaved at neck and disinfected with 75% alcohol cotton ball. […] The experimental rats were monitored with the small-animal monitor to evaluate if their physiological parameters were normal, and the rats were placed on a small-animal electric blanket to keep their body temperature until they waked up and placed in animal cages. […] The quantitative analysis of photos after TTC staining was performed using Image J software. […]

[4] = system: rat model of cerebral ischemia via middle cerebral artery occlusion (MCAO); assay: Rat MCAO cerebral ischemia model, behavioral observation and scoring 0-5 (Example 5); format: in vivo, SD rats; details: 3 mg/kg tail vein, scoring 22-24 h after ligation, scale 0-5; for Behavioral score, mean value: group mean, 6 rats
Protocol: In order to determine use of the synthetic peptides provided herein in a neurological disease, SD rats were used to prepare a rat model of cerebral ischemia via middle cerebral artery occlusion (MCAO). These rats were injected intravenously 1-2 hours after ischemia, and subjected for a behavioral observation and scoring after 22-24 hours. After the behavioral observation, the rats were euthanized and their brains were removed, cut to sections and stained with TTC for quantitative analysis, and the cerebral infarct volume % was calculated. The experimental SD rats were weighed and anesthetized with chloral hydrate. After anesthesia, the limbs of the rats were fixed, and the rats were placed in a supine position, connected to the small-animal monitor, and monitored for important physiological parameters such as body temperature, blood pressure and heart rate, etc. The rats were shaved at neck and disinfected with 75% alcohol cotton ball. A middle incision of about 2 cm length was then made on the neck of the rats, and the submandibular gland of the rats was bluntly separated while avoiding damage to the gland. Then, the left common carotid artery (CCA) of the rats was bluntly separated, and the internal carotid artery (ICA) and external carotid artery (ECA) were carefully separated upward along the CCA. Any damage to vagus nerves was avoided during the separation. The CCA and ICA were clamped respectively with two artery clamps, and the distal end of the ECA was cut off. A silicone suture emboli was inserted into the ECA “port” to the ICA artery clamp. Then the artery clamp was quickly loosened and the tip of the suture emboli was pushed forward through the artery clamp quickly before clamping the ICA again. […] The experimental rats were monitored with the small-animal monitor to evaluate if their physiological parameters were normal, and the rats were placed on a small-animal electric blanket to keep their body temperature until they waked up and placed in animal cages. […]

[5] = system: acute ischemic stroke due to large vessel occlusion; details: cited from earlier work

Compound	Body weight D 2, individual animals ([1]; after surgery and administration)	Body weight D 0, individual animals ([1]; before surgery (baseline))	Death and autopsy findings in animals excluded from statistical analysis [2]	Cerebral infarct volume (TTC quantification), mean value ([3]; group mean, 6 rats)	Cerebral infarct volume (TTC quantification), individual rats No. 1-6 ([3]; individual rat, listed as S1(NA1))	Behavioral score, mean value [4]	Behavioral score, mean value ([4]; listed as NA1)	Behavioral score, individual rats No. 1-6 ([4]; individual rat)	Serious adverse events ([5]; human, in vivo)	Proportion of patients with an mRS score of 0-2 within 90 days ([5]; single dose of 2.6 mg/kg, maximum 270 mg, 549 patients, placebo 59.2%) [%]
CC[C@H](C)[C@H](NC(=O)[C@H](CO)NC(=O)[C@H](CO)NC(=O)[C@H](CC(C)C)NC(=O)[C@H](CCCCN)NC(=O)[C@H](Cc1c[nH]cn1)NC(=O)CCN)C(=O)N[C@@H](CCC(=O)O)C(=O)N[C@@H](CO)C(=O)N[C@@H](CC(=O)O)C(=O)N[C@H](C(=O)O)C(C)C [Example S3, beta-Ala-His-Lys-Leu-Ser-Ser-Ile-Glu-Ser-Asp-Val] (H-[βAla]HKLSSIESDV-OH)	232.57 g and 249.67 g and 201.22 g and 228.45 g and 202.45 g and 195.33 g and 217.36 g	281.72 g and 266.48 g and 253.24 g and 286.91 g and 258.64 g and 247.34 g and 273.73 g	found dead; also recorded: subarachnoid hemorrhage	–	–	–	–	–	–	–
YGRKKRRQRRRKLSSIESDV [Example S1]	–	–	–	0.157	0.187 and 0.218 and 0.153 and 0.145 and 0.107 and 0.134	2.0	2.0±0.6	2 (4×) and 1 and 3	occurred equally between groups	61.4
